This note sets out measurements from patent publication US6710048B2, “Pyrazine derivatives as modulators of tyrosine kinases” (Ortho-McNeil Pharmaceutical, Inc., priority 2000, dated 2004).

Assay [1] deals with HCT-116 colon carcinoma. Description: Cell proliferation assay (14C-thymidine incorporation), HCT-116. It is filed as cell-based. The conditions noted are these: Homo sapiens, read-out: Inhibition of cell proliferation IC50. As to the method:
(§1) The ability of a test compound to inhibit the proliferation of cell growth was determined by measuring incorporation of ^14C-labelled thymidine into newly synthesized DNA within the cells. This method was used on cell lines derived from carcinomas originating from several tissues such as HeLa cervical adenocarcinoma (American Type Culture Collection (ATCC), Virginia, Cat. #CCL-2), A375 malignant melanoma (ATCC CRL-1619), SK-OV-3 ovarian adenocarcinoma (ATCC HTB-77) HCT-116 colon carcinoma (CCL-247) and PC-3 prostate adenocarcinoma (ATCC CRL-1435). The method was also used on primary cells such as HUVEC endothelial cells (ATCC CRL-1730). In this way the effect of a compound on cell growth of cells with many different phenotypes can be determined. Cells were trypsinized and counted and 3000-8000 cells were added to each well of a 96-well CytoStar tissue culture treated scintillating microplate (Amersham #RPNQ0160) in complete medium in a volume of 100 μl. Cells were incubated for 24 hours in complete medium at 37° C. in an atmosphere containing 5% CO2.
(§2) Next, 1 μl of test compound in 100% DMSO was added to the wells of the plate. DMSO only was added to control wells. Cells were incubated for 24 more hours in complete medium at 37° C. in an atmosphere containing 5% CO2. Methyl ^14C-thymidine 56 mCi/mmol (NEN #NEC568 or Amersham #CFA532) was diluted in complete medium and 0.2 μCi/well was added to each well of the CytoStar plate in a volume of 20 μl. The plate was incubated for 24 hours at 37° C. plus 5% CO2 in drug plus ^14C-thymidine. The contents of the plate were discarded into a ^14C radioactive waste container by inverting the plate and the plate was washed twice with 200 μl PBS. 200 μl of PBS is then added to each well. The top of the plate was sealed with a transparent plate sealer and a white plate backing sealer (Packard #6005199) was applied to the bottom of the plate. The degree of Methyl ^14C-thymidine incorporation was quantified on a Packard Top Count.
Background: Uptake of a labelled nucleoside into DNA is a usual measure of proliferation.

In assay [2] the test system is MDA-MB-231. Description: Cell proliferation assay (14C-thymidine incorporation), MDA-MB-231. It is filed as cell-based. The settings on record: Homo sapiens, read-out: Inhibition of cell proliferation IC50. As to the method: as §1, §2
Assay [3] deals with HeLa cervical adenocarcinoma. The assay can be described thus: Cell proliferation assay (14C-thymidine incorporation), HeLa. It counts as cell-based. The conditions noted are these: Homo sapiens, read-out: Inhibition of cell proliferation IC50. Here is the method: as §1, §2
Assay [4] concerns PC-3 prostate adenocarcinoma. Description: Cell proliferation assay (14C-thymidine incorporation), PC-3. It counts as cell-based. The settings on record: Homo sapiens, read-out: Inhibition of cell proliferation IC50. Here is the method: as §1, §2
Assay [5] addresses T1, VEGF-R (vascular endothelial growth factor receptor-2) (Rattus norvegicus, UniProt O08775).
T1 construct: polyhistidine (6xHis) (N)
The assay can be described thus: VEGF-R screening assay (33P FlashPlate kinase assay). It is filed as biochemical. Here is the method:
A kinase reaction mixture was prepared containing 50 mM Tris-HCl pH=8, 10 mM MgCl2, 0.1 mM NAPO4, 1 mM DTT, 10 μM ATP, 0.025 μM biotinylated peptide substrate and 0.8 μCuries per well ^33P-γ-ATP [2000-3000 Ci/mmol]. 70 μl of the kinase reaction mixture was dispensed into the well of a streptavidin coated FlashPlate™ (Cat. # SMP103, NEN, Boston, Mass.). Then 1 μl of test compound stock in 100% DMSO was added to the wells resulting in a final concentration of 1% DMSO in the reaction with a 100 μl final reaction volume. Next, soluble rat tyrosine kinase containing an N-terminal 6×HIS tag was diluted in 50 mM Tris-HCl pH=8.0, 0.1% BSA at a concentration of 5 ng per microliter and 30 μl (150 ng enzyme per test well) was added to each well to initiate the reaction. The reaction was incubated for one hour at 30° C. At the end of the 1-hour incubation, the reaction was terminated by aspirating the reaction mixture from the plate and washing the wells twice with PBS containing 100 mM EDTA. The PLCI biotinylated peptide substrate becomes immobilized on the Flashplate™ and the incorporation of ^33P-γ-ATP was measured by reading the plate on a scintillation counter. Inhibition of the enzymatic activity of the VEGF-R was measured by observing a reduced amount of ^33P-γ-ATP incorporated into the immobilized peptide.
(§3) The term n.d. means not tested.
(§4) Assays to test compound inhibition of other kinases were preformed using methods that measure the amount of phosphorylation of a biotinylated peptide substrate. Biotinylated peptide substrates were selected from the literature as appropriate for the enzyme being evaluated. The general procedure used to assay for kinase activity is as follows: A kinase reaction mix was prepared in 50 mM Tris-HCl pH=8, 10 mM MgCl2, 0.1 mM NaVO4, 1 mM DTT, 5-10 μM ATP, 0.25-1 μM biotinylated peptide substrate, 0.2-0.8 μCuries per well ^33P-γ-ATP [2000-3000 Ci/mmol]. Assay conditions vary slightly for each protein kinase, for example, insulin receptor kinase requires 10 mM MnCl2 for activity and Calmodulin-dependent protein kinase requires calmodulin and 2 mM CaCl2. The reaction mixture was dispensed into the wells of a streptavidin coated Flashplate and 1 μl drug stock in 100% DMSO was added to a 100 μl reaction volume resulting in a final concentration of 1% DMSO in the reaction. Enzyme was diluted in 50 mM Tris-HCl pH=8.0, 0.1% BSA and added to each well. The reaction was incubated for one hour at 30° C. in the presence of compound. After one hour the reaction mix was aspirated from the plate and the plate was washed with PBS containing 100 mM EDTA. The plate was read on a scintillation counter to determine ^33P-γ-ATP incorporated into the immobilized peptide. Test compounds were assayed in duplicate at 8 concentrations [100 tM, 10 μM, 1 μM, 100 nM, 10 nM, 1 nM, 100 μM, 10 μM]. A maximum and minimum signal for the assay was determined on each plate. The IC50 was calculated from the dose response curve of the percent inhibition of the maximum signal in the assay according to the formula [max signal−background/test compound signal−background (100)=% inhibition] by graphing the percent inhibition against the log concentration of test compound. Known inhibitor compounds appropriate for the kinase being assayed were also included on each plate.
VEGF-R (vascular endothelial growth factor receptor-2) is a fusion protein containing a polyhistidine tag at the N-terminus followed by amino acids 786-1343 of the rat VEGF-R2 kinase domain (GenBank Accession #U93306). CDK1 (cyclin dependent kinase 1) is isolated from insect cells expressing both the human CDK1 catalytic subunit and its positive regulatory subunit cyclin B (New England Biolabs, Beverly, Mass., Cat. #6020). CDK4 (cyclin dependent kinase 4) contains amino acids 769 to 921 of the mouse […] protein found in the GST-retinoblastoma protein construct (Santa Cruz Biotechnology, Santa Cruz, Calif.; Cat. #SC-4112). […]

For assay [6], the target named is HER2 (Homo sapiens, UniProt P04626). Description: HER2 kinase selectivity assay. It is filed as biochemical. The settings on record: Table 4 kinase selectivity; read-out: IC50, Assay 16 HER2. As to the method:
as §4

The target of assay [7] is T2, CDK1 (cyclin dependent kinase 1) / cyclin B (Homo sapiens, UniProt P06493).
T2 construct: purchased New England Biolabs 6020; host or cells: insect cells
Description: CDK1 kinase assay. It counts as biochemical. As to the method: as §3
as §4, with “Test compounds were assayed in duplicate at 8 concentrations [100 tM, 10 μM, 1 μM, 100 nM, 10 nM, 1 nM, 100 μM, 10 μM].” left out
VEGF-R (vascular endothelial growth factor receptor-2) is a fusion protein containing a polyhistidine tag at the N-terminus followed by amino acids 786-1343 of the rat VEGF-R2 kinase domain (GenBank Accession #U93306). CDK1 (cyclin dependent kinase 1) is isolated from insect cells expressing both the human CDK1 catalytic subunit and its positive regulatory subunit cyclin B (New England Biolabs, Beverly, Mass., Cat. #6020). CDK4 (cyclin dependent kinase 4) contains amino acids 769 to 921 of the mouse […] protein found in the GST-retinoblastoma protein construct (Santa Cruz Biotechnology, Santa Cruz, Calif.; Cat. #SC-4112). Insulin Receptor Kinase consists of residues 941-1313 of the cytoplasmic domain of the beta-subunit of the human insulin receptor (BIOMOL, Plymouth Meeting, Pa., Cat. #SE-195). Protein Kinase A is the catalytic subunit of cAMP dependent protein kinase-A purified from bovine heart (Upstate Biotech, Lake Placid, N.Y., Cat#14-114). PKC (protein kinase-C) is the gamma or beta isoform of the human protein produced in insect cells (BIOMOL, Plymouth Meeting, Pa., Cat. #SE-143). Casein Kinase 1 is a truncation at amino acid 318 of the C-terminal portion of the rat CK1 delta isoform produced in E.coli (New England Biolabs, Beverly, Mass., Cat. #6030). Casein Kinase 2 includes the alpha and beta subunits of the human CK2 protein produced in E.coli (New England Biolabs, Beverly, Mass., Cat. #6010). Calmodulin Kinase (calmodulin-dependent protein kinase 2) is a truncated version of the alpha subunit of the rat protein produced in insect cells (New England Biolabs, Beverly, Mass., Cat. #6060). Glycogen Synthase Kinase-3 is the beta isoform of the rabbit enzyme produced in E. coli (New England Biolabs, Beverly, Mass., Cat. #6040). MAP Kinase is the rat ERK-2 isoform containing a polyhistidine tag at the N-terminus produced in E. coli. and activated by phosphorylation with MEK1 prior to purification (BIOMOL, Plymouth Meeting, Pa., Cat. #SE-137). EGFR (epidermal growth factor receptor) is purified from human A431 cell membranes (Sigma, St. Louis, Mo., Cat.# E3641). […]

Assay [8] addresses FGF-R2 (Homo sapiens, UniProt P21802). The assay can be described thus: FGF-R2 kinase selectivity assay. It counts as biochemical. The conditions noted are these: Table 4 kinase selectivity; read-out: IC50, Assay 15 FGF-R2. As to the method: as §4

Read-outs that look alike come from different tables or passages of the source.

T1 sequence (O08775 786-1343): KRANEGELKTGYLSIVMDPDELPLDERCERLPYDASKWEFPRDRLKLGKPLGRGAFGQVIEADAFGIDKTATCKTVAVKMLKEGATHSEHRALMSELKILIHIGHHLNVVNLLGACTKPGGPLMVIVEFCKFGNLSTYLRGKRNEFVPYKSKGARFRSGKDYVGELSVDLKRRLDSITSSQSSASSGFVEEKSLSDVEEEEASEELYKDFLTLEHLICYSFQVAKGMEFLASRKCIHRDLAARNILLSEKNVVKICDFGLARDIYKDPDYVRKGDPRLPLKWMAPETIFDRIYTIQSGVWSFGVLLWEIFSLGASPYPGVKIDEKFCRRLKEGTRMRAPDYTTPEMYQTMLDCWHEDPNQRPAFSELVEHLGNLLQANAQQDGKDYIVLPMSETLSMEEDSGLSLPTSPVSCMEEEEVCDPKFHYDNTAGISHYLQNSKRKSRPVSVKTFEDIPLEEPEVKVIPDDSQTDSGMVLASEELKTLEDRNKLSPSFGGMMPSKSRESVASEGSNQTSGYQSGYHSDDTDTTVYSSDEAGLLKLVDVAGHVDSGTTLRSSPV
T2 sequence (P06493 whole entry): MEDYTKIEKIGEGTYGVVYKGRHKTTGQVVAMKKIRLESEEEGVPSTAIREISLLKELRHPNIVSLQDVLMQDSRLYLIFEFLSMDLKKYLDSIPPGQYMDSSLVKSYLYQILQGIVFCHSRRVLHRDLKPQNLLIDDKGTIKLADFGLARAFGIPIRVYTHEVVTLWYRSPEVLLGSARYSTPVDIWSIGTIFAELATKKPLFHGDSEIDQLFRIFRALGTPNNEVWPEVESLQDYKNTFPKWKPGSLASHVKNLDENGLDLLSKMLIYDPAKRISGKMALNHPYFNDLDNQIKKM
T2 sequence (P14635 whole entry partner): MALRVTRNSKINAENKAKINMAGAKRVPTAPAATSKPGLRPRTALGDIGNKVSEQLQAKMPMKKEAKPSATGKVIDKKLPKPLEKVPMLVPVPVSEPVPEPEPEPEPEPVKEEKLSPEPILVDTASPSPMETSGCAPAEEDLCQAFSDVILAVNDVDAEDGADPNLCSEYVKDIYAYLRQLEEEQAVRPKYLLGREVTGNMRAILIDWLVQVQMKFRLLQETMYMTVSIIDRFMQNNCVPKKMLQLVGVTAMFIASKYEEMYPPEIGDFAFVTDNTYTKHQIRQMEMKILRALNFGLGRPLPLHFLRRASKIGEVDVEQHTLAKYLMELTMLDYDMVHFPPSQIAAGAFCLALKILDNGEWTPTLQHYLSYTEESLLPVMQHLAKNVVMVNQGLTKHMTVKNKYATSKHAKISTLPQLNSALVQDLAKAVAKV
Sequence of FGF-R2 (P21802 22-821, species assumed): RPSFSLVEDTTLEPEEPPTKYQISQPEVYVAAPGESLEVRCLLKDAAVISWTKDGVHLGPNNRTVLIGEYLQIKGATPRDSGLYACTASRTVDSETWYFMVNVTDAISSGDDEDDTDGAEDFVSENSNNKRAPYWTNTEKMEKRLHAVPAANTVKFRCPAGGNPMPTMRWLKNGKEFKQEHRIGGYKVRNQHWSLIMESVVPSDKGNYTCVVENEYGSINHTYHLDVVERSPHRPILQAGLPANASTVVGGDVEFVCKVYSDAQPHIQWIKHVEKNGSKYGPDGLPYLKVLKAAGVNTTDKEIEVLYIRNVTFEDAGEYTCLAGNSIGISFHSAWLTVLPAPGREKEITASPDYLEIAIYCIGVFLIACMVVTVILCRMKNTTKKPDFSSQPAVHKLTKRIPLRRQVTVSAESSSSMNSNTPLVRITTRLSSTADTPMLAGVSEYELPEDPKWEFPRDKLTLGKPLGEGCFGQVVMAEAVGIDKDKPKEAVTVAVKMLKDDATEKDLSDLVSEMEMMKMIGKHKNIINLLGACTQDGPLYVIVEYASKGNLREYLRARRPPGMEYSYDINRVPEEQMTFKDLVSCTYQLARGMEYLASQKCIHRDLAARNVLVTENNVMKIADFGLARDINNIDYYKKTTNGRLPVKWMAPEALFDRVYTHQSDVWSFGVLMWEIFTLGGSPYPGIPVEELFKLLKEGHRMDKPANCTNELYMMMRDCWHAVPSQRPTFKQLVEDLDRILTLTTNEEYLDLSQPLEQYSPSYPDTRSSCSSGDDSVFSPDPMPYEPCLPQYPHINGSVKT
Sequence of HER2 (P04626 23-1255, species assumed): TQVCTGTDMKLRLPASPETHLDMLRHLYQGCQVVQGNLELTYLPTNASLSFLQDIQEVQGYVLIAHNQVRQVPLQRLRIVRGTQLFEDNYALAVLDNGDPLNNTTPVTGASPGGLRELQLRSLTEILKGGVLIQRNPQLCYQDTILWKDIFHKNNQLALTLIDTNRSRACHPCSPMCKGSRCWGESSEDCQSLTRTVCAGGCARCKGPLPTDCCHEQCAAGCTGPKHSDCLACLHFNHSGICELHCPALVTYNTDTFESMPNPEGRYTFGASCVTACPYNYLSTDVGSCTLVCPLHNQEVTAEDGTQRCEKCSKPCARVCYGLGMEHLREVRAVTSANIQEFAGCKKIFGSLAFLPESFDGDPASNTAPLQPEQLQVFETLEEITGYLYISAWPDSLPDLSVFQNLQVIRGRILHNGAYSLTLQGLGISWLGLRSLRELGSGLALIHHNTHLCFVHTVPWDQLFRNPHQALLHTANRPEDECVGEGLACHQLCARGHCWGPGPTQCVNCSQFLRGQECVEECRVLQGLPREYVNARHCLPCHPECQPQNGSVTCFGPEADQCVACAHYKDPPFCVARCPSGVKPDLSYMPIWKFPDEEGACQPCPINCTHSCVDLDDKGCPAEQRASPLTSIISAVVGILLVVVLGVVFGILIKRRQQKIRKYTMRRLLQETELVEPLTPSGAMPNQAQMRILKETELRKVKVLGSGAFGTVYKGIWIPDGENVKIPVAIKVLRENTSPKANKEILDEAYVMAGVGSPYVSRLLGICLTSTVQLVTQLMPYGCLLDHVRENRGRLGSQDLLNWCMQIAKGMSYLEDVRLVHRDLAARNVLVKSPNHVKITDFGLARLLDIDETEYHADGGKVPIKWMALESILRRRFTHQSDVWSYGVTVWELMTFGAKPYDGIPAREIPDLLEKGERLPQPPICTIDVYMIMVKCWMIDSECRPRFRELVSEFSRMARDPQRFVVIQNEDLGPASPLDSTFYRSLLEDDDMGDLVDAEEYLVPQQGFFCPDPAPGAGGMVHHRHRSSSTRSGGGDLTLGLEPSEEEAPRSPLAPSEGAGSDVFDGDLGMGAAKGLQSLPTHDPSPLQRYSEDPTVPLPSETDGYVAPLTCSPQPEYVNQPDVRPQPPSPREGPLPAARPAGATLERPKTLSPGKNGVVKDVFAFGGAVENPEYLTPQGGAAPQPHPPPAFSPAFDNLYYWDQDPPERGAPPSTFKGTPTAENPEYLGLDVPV

Regarding `Clc1cccc(Nc2cncc(-c3cncc(NCCCc4cccnc4)c3)n2)c1` [Cmd 72, N-(3-chlorophenyl)-6-[5-[[3-(3-pyridinyl)propyl]amino]-3-pyridinyl]-2-pyrazinamine], the IC50 came out at 4970 nM in assay [1], 2570 nM in assay [2], 5700 nM in assay [3] and 2580 nM in assay [4].
On to `Clc1cccc(Nc2cncc(-c3cncc(NCCCc4ccncc4)c3)n2)c1` [Cmd 71, N-(3-chlorophenyl)-6-[5-[[3-(4-pyridinyl)propyl]amino]-3-pyridinyl]-2-pyrazinamine], for which the IC50 in assay [1] is 3290 nM; in assay [2], 1880 nM; in assay [3], 3800 nM; in assay [4] it was 3200 nM.
In the case of `Clc1cccc(Nc2cncc(-c3cncc(NCCCn4ccnc4)c3)n2)c1` [Cmd 77], the IC50 in assay [5] (Table 4 kinase selectivity, read-out: IC50, Assay 1 VEGF-R) is 30 nM; in assay [5] (Tables 1-3, >10 or >100 = no 50% inhibition at highest dose tested, read-out: VEGF-R IC50), 30 nM; in assay [6], 966 nM; in assay [7] (Table 4 kinase selectivity, 10 = approximate value, read-out: IC50, Assay 2 CDK1), ~10000 nM; in assay [7] (Tables 1-3, >10 or >100 = no 50% inhibition at highest dose tested, read-out: CDK IC50), > 10000 nM; in assay [8] it was 221 nM.
